Experimental data reported in patent US20250228835A1, “PYRIDINYLOXYPYRIDINES AND RELATED COMPOUNDS AND THEIR USE IN TREATING MEDICAL CONDITIONS” (Rectify Pharmaceuticals, Inc., priority 2024, published 2025).

Legend:
Type in all cases: cell-based
ABCC6 WT = molecular target: T1, ABCC6 WT (Homo sapiens, UniProt O95255); experiment: ABCC6 WT assay: HiBit protein expression; conditions: HEK-293 cells transiently expressing HiBit-tagged ABCC6 WT; 24 h treatment; top concentration 20 μM; read-out: ABCC6 WT EC50, Emax
T1 construct: expressed in transfected cells; host or cells: HEK-293 (transient, Lipofectamine 2000)
T1 sequence (O95255 whole entry): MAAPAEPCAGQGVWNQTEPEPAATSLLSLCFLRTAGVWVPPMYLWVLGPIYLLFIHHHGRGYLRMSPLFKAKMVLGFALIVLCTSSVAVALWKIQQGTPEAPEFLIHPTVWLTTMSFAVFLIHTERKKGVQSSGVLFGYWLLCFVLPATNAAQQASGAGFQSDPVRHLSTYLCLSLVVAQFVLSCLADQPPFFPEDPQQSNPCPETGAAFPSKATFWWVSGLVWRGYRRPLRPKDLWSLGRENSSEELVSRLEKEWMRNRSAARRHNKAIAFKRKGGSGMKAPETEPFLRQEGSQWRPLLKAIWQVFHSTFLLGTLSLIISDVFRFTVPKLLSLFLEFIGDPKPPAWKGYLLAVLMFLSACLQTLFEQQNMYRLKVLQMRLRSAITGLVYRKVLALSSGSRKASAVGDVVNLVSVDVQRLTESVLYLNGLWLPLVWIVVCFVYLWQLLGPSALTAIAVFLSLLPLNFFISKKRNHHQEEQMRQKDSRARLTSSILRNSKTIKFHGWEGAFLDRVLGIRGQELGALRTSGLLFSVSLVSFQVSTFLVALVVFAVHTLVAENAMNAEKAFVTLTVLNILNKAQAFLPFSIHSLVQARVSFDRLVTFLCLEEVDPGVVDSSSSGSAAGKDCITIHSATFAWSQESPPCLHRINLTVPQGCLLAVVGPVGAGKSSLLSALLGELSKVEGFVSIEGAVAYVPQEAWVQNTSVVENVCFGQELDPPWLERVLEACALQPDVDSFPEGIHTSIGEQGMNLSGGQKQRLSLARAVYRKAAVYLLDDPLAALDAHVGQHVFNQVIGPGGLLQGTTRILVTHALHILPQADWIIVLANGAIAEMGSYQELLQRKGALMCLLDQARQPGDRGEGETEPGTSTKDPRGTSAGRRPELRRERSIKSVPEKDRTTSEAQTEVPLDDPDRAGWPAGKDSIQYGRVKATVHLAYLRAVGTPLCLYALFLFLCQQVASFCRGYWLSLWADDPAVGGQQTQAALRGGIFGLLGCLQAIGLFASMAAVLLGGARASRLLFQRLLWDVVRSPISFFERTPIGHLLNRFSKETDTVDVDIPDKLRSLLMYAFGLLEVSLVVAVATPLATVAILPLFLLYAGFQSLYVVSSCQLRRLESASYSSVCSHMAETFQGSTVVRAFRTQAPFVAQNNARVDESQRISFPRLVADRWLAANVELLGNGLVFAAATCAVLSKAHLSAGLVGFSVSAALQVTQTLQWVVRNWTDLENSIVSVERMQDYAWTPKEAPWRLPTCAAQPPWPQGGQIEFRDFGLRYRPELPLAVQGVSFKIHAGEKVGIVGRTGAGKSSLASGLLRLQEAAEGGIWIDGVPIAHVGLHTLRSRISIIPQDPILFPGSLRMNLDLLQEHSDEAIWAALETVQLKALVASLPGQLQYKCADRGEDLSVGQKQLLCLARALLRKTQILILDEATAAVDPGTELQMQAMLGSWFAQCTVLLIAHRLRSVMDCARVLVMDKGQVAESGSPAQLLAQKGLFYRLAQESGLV
Source text: To assess activity against ABCC6, compounds were screened in an assay measuring protein expression, using cells transfected with cDNA encoding HiBit-tagged ABCC6 wild-type.
Described here is an assay for measuring the expression of the wild type of human ABCC6 (henceforth referred to as ABCC6 WT) and the use of this assay to measure the efficacy of compounds to increase the expression of ABCC6 WT. The assay was designed to characterize the efficacy and potency of compounds to increase the expression of ABCC6 WT by calculating an Emax and EC50 value. HEK-293 cells transiently expressing ABCC6 WT (HEK-293/ACC6 WT) were used for this assay and were cultured at 37° C. (5% CO2, humidified) in Dulbecco's Modified Eagle Medium (DMEM, Gibco product #11965-092) supplemented with 10% fetal bovine serum. For the assay, HEK-293 cells were transfected with […]/10 cm plate of cDNA encoding HiBit-tagged ABCC6 wild-type using Lipofectamine 2000 (Thermo Fisher, product #11668019). Twenty-four hours after transfection, the HEK-293/ACC6 WT cells were seeded in white/opaque 384-well plates (PerkinElmer, cat. No. 6007688) at 10,000 cells/well in 20 μl growth medium and allowed to settle for 4 hours at 37° C. (5% CO2, humidified). Compound serial dilutions are prepared in growth medium as ten times (10×) the final concentration and using a dilution factor of 2. After the four-hour incubation period, 2.2 μL of the 10× dilutions are transferred to the assay plate.
Dose response curves include ten doses with the top final concentration at 20 μM in 0.15% DMSO. Liquid handling is performed with an Integra mini96-tip head (INTEGRA). After addition of compound treatment, cells are incubated for 24 hours at 37° C. (5% CO2, humidified). After the 24-hour treatment, plates are allowed to equilibrate for 15 minutes at room temperature. Using Integra mini-96, 20 μl of HiBit lytic assay reagent (Promega, product #N3040), which is prepared according to manufacturer's instructions, is added to each well. The plates are rotated at room temperature for 10 minutes and luminescent signal is acquired using an EnVision Multimode Plate Reader (PerkinElmer).
Results are presented below in Table 4 for ABCC6 WT.

ABCB4 WT = molecular target: T2, ABCB4 WT (Homo sapiens, UniProt P21439); experiment: ABCB4 WT assay: HiBit protein expression; conditions: HEK-293 cells stably expressing HiBit-tagged ABCB4 WT; 24 h treatment; top concentration 30 μM; read-out: ABCB4 WT EC50, Emax
T2 construct: expressed in transfected cells
T2 sequence (P21439 whole entry): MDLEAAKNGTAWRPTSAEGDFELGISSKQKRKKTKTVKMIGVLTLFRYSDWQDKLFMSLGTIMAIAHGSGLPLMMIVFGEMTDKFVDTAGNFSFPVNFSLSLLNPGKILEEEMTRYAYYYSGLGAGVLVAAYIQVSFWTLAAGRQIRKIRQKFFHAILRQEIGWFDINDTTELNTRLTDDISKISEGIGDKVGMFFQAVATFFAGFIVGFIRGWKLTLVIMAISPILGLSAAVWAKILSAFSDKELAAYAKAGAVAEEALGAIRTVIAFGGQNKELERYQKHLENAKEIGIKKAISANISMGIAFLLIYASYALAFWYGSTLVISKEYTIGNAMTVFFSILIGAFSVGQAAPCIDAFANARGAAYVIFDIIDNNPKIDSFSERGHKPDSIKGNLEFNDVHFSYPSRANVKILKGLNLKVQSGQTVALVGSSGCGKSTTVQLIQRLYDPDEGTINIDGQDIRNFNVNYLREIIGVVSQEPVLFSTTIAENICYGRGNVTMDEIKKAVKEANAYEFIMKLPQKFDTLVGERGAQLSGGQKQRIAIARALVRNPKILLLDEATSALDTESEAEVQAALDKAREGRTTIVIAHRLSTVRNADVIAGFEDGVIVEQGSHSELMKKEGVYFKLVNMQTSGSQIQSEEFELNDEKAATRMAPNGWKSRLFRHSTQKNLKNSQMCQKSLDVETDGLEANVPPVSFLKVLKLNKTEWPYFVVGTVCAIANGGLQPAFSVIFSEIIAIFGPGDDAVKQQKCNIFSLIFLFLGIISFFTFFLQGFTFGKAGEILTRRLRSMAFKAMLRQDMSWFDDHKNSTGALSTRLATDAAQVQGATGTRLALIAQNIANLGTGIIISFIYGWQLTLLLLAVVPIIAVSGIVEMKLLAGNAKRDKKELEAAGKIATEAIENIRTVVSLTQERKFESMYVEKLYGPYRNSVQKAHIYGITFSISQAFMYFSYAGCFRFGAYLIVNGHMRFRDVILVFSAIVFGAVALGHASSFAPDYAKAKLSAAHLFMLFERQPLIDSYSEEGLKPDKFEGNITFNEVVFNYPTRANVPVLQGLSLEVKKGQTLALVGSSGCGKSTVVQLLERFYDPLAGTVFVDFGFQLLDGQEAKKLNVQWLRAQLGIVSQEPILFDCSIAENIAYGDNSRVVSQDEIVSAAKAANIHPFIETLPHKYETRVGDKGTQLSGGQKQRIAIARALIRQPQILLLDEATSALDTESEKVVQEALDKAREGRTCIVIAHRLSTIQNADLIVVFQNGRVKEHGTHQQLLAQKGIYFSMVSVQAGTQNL
Source text: To assess activity against ABCB4, compounds were screened in an assay measuring protein expression, using cells transfected with cDNA encoding HiBit-tagged ABCB4 wild-type.
Described here is an assay for measuring the expression of the wild type of human ABCB4 (henceforth referred to as ABCB4 WT) and the use of this assay to measure the efficacy of compounds to increase the expression of ABCB4 WT. The assay was designed to characterize the efficacy and potency of compounds to increase the expression of ABCB4 WT by calculating an Emax and EC50 value. HEK-293 cells stably expressing ABCB4 WT (HEK-293/ABCB4 WT) were used for this assay and were maintained at 37° C. (5% CO2, humidified) in Dulbecco's Modified Eagle Medium (DMEM, Gibco product #12100) supplemented with 10% fetal bovine serum (Biosera product #FB-1058/500), 1% PenStrep (HDB product #15140-122), and 0.5 mg/mL puromycin (Gibco product #A11138-03). For the assay, the HEK-293/ABCB4 WT cells were seeded in white/opaque 384-well plates (Corning product #3570) at 10,000 cells/well in 20 μl growth medium and allowed to settle for 4 hours at 37° C. (5% CO2, humidified). Compound serial dilutions are prepared in DMSO as three hundred times (333×) the final concentration and using a dilution factor of 3 using Bravo (Agilent). After the four-hour incubation period, 60 nL of DMSO solutions are transferred to the assay plate.
(§1) Dose response curves include eleven doses with the top final concentration at 30 μM in 0.3% DMSO. Liquid handling is performed with ECHO 550 Acoustic Liquid Handler (Labcyte). After addition of compound treatment, cells are incubated for 24 hours at 37° C. (5% CO2, humidified). After the 24-hour treatment, plates are allowed to equilibrate to room temperature for 10 minutes. Using Dragonfly Automated Liquid Handler (TTP LabTech), 20 μl of HiBit lytic assay reagent (Promega, product #N3040), which is prepared according to manufacturer's instructions, is added to each well. The plates are rotated at room temperature for 2 minutes and incubated for 1 hour at 25° C. before luminescent signal is acquired using an EnVision Multimode Plate Reader (PerkinElmer).
Results are presented below in Table 5 for ABCB4 WT.

ABCA4 P1380L = molecular target: T3, ABCA4 P1380L (Homo sapiens, UniProt P78363, P1380L); experiment: A4 correction dose-response assay: ABCA4 P1380L HiBit protein expression; conditions: HEK-293 cells stably expressing HiBit-tagged ABCA4 P1380L; 24 h treatment; top concentration 30 μM; read-out: ABCA4 P1380L EC50, Emax
T3 construct: expressed in transfected cells
T3 sequence (P78363 whole entry P1380L): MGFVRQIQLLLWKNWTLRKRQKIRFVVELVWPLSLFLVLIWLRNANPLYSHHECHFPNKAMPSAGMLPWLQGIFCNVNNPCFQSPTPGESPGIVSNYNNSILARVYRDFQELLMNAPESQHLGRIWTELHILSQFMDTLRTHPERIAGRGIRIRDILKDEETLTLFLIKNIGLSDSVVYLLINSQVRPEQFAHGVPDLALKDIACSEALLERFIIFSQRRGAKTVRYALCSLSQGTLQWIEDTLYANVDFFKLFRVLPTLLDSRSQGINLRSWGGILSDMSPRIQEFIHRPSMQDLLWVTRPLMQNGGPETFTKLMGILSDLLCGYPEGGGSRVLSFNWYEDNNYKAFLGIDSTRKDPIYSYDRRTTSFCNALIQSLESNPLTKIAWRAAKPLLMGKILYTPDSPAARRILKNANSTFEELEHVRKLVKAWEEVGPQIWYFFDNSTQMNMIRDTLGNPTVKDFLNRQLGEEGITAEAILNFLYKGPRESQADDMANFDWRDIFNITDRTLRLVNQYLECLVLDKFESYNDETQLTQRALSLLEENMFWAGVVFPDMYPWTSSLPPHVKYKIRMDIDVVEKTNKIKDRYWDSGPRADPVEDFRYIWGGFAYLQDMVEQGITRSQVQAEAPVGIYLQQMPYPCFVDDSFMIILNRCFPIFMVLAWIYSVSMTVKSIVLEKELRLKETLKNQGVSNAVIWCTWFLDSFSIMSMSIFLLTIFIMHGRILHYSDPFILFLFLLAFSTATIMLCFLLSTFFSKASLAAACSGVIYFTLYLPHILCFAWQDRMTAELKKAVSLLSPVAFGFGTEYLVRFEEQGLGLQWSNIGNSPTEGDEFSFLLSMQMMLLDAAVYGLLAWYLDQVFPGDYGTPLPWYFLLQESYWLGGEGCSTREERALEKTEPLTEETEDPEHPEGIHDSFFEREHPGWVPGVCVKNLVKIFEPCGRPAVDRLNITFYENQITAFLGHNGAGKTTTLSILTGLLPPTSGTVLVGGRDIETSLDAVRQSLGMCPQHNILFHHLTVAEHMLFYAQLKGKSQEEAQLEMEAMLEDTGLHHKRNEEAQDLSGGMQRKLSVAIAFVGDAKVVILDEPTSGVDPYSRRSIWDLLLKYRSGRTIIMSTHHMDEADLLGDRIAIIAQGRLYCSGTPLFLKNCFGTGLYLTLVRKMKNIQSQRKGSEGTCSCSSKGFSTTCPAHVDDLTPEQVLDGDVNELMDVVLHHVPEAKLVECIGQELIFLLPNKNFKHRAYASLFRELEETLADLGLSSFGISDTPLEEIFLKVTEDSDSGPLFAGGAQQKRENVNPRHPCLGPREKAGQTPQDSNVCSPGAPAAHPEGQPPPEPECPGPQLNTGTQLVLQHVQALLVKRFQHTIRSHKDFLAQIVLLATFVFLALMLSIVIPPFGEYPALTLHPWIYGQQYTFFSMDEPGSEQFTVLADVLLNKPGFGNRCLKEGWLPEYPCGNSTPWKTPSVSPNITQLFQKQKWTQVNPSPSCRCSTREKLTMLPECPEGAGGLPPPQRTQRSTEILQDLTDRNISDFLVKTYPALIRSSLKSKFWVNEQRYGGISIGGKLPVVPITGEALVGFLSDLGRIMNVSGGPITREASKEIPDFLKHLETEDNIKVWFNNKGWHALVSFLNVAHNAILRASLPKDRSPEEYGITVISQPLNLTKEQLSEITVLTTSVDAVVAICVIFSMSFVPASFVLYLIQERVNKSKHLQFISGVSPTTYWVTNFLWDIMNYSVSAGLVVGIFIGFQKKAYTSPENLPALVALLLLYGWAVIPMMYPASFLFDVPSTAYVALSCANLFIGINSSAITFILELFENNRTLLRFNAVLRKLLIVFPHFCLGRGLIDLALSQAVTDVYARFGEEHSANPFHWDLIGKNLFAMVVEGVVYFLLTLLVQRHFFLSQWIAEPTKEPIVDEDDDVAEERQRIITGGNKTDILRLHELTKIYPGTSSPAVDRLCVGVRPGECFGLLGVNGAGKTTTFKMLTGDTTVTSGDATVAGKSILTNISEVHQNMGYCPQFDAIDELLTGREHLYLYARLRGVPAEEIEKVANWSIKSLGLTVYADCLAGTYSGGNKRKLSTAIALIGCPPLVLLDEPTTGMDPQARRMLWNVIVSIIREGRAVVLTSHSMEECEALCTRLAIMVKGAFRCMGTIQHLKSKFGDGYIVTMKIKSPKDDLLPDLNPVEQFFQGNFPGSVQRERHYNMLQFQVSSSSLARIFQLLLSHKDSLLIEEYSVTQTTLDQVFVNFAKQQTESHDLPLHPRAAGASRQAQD
Description: Exemplary compounds were evaluated in an A4 correction dose-response assay.
To assess activity against ABCA4 P1380L, the compounds were screened in an assay measuring protein expression, using cells transfected with cDNA encoding HiBit-tagged ABCA4 P1380L. Here we describe an assay for measuring the expression of the P1380L variant of human ABCA4 (henceforth referred to as ABCA4 P1380L) and the use of this assay to measure the efficacy of compounds to increase the expression of ABCA4 P1380L. The assay was designed to characterize the efficacy and potency of compounds to increase the expression of ABCA4 P1380L by calculating an Emax and EC50 value. […] (5% CO2, humidified). […] After the four-hour incubation period, 60 nL of DMSO solutions are transferred to the assay plate.
as §1

Question: How did the EC50 (ABCC6 WT) turn out when Cc1nc(Oc2nc(-c3cncc(C#N)c3)ccc2NS(C)(=O)=O)c(C2CC2)s1 [Compound I-300] was run?
Answer: < 1 µM

Question: What about the EC50 (ABCB4 WT) of the same compound?
Answer: < 1 µM

Question: And the EC50 (ABCA4 P1380L)?
Answer: < 25 µM

Question: With Cc1cc(C(F)(F)F)nc(C2CC2)c1Oc1nc(-c2cncc(C#N)c2)ccc1S(=N)(=O)C1CCOCC1 (stereo not drawn) [Compound I-301] as the compound, how does the EC50 (ABCC6 WT) read?
Answer: 1 to 10 µM

Question: What about the EC50 (ABCB4 WT) of the same compound?
Answer: ≥ 25 µM

Question: And the EC50 (ABCA4 P1380L)?
Answer: < 25 µM

Question: With Cc1cc(C(F)(F)F)nc(C2CC2)c1Oc1nc(-c2cncc(C#N)c2)ccc1S(=N)(=O)c1ccccn1 (stereo not drawn) [Compound I-302] as the compound, how does the EC50 (ABCC6 WT) read?
Answer: 10 to 25 µM

Question: What about the EC50 (ABCB4 WT) of the same compound?
Answer: 10 to 25 µM

Question: What about the EC50 (ABCA4 P1380L) of the same compound?
Answer: > 25 µM

Question: Which results are given for Cc1nc(C(F)(F)F)nc(C2CC2)c1Oc1nc(-c2cncc(C#N)c2)ccc1S(=N)(=O)C1CC1 (stereo not drawn) [Compound I-303]?
Answer: EC50 (ABCC6 WT): 1 to 10 µM; EC50 (ABCB4 WT): ≥ 25 µM; EC50 (ABCA4 P1380L): > 25 µM

Question: What does the source list for Cc1cc(C(F)(F)F)nc(C2CC2)c1Oc1nc(-c2cncc(C#N)c2)ccc1S(=N)(=O)c1cccnc1 (stereo not drawn) [Compound I-304]?
Answer: EC50 (ABCC6 WT): 1 to 10 µM; EC50 (ABCB4 WT): 1 to 10 µM; EC50 (ABCA4 P1380L): 1 to 10 µM

Question: How did the EC50 (ABCC6 WT) turn out when Cc1cc(C(F)(F)F)nc(C2CC2)c1Oc1nc(-c2cncc(C#N)c2)ccc1S(=O)(=O)NC1COC1 [Compound I-305] was run?
Answer: < 1 µM

Question: What about the EC50 (ABCB4 WT) of the same compound?
Answer: ≥ 25 µM

Question: And the EC50 (ABCA4 P1380L)?
Answer: > 25 µM

Question: Which results are given for Cc1cc(C(F)(F)F)nc(C2CC2)c1Oc1nc(-c2cncc(C#N)c2)ccc1S(=O)(=O)NC1CCOCC1 [Compound I-306]?
Answer: EC50 (ABCC6 WT): < 1 µM; EC50 (ABCB4 WT): ≥ 25 µM; EC50 (ABCA4 P1380L): < 25 µM

Question: How did the EC50 (ABCC6 WT) turn out when Cc1cc(C)c(Oc2nc(-c3c[nH]c(=O)c(C#N)c3)ccc2NS(C)(=O)=O)c(C)n1 [Compound I-307] was run?
Answer: 1 to 10 µM

Question: What about the EC50 (ABCB4 WT) of the same compound?
Answer: ≥ 25 µM

Question: And the EC50 (ABCA4 P1380L)?
Answer: > 25 µM

Question: For CNS(=O)(=O)c1ccc(-c2cncc(C#N)c2)nc1Oc1nc(C2CC2)sc1C [Compound I-308], which EC50 (ABCC6 WT) is on record?
Answer: 1 to 10 µM

Question: What about the EC50 (ABCB4 WT) of the same compound?
Answer: < 25 µM

Question: What about the EC50 (ABCA4 P1380L) of the same compound?
Answer: > 25 µM

Question: What does the source list for Cc1nc(C(F)(F)F)nc(C2CC2)c1Oc1nc(-c2cncc(C#N)c2)ccc1S(=O)(=O)Nc1cnn(C)c1 [Compound I-309]?
Answer: EC50 (ABCC6 WT): 1 to 10 µM; EC50 (ABCB4 WT): < 1 µM; EC50 (ABCA4 P1380L): > 25 µM

Question: Which results are given for Cc1nc(C(F)(F)F)nc(C2CC2)c1Oc1nc(-c2cncc(C#N)c2)ccc1S(=O)(=O)Nc1cccnc1 [Compound I-310]?
Answer: EC50 (ABCC6 WT): < 1 µM; EC50 (ABCB4 WT): ≥ 25 µM; EC50 (ABCA4 P1380L): > 25 µM

Question: Which EC50 (ABCC6 WT) does the source give for Cc1cc(C)[n+]([O-])c(C)c1Oc1nc(-c2cncc(C#N)c2)ccc1NS(C)(=O)=O [Compound I-311] here?
Answer: 1 to 10 µM

Question: And the EC50 (ABCB4 WT)?
Answer: 1 to 10 µM

Question: And the EC50 (ABCA4 P1380L)?
Answer: 1 to 10 µM

Question: Which EC50 (ABCC6 WT) does the source give for CNS(=O)(=O)c1ccc(-c2cncc(C#N)c2)nc1Oc1nc(C)sc1C1CC1 [Compound I-312] here?
Answer: < 25 µM

Question: And the EC50 (ABCB4 WT)?
Answer: ≥ 25 µM

Question: And the EC50 (ABCA4 P1380L)?
Answer: > 25 µM

Question: What does the source list for CNS(=O)(=O)c1ccc(-c2cncc(C#N)c2)nc1Oc1c(C)nc(C(F)F)nc1C1CC1 [Compound I-313]?
Answer: EC50 (ABCC6 WT): 1 to 10 µM; EC50 (ABCB4 WT): 1 to 10 µM; EC50 (ABCA4 P1380L): 10 to 25 µM

Question: For Cc1nc(C(F)F)nc(C2CC2)c1Oc1nc(-c2cncc(C#N)c2)ccc1S(=O)(=O)NC1CC1 [Compound I-314], which EC50 (ABCC6 WT) is on record?
Answer: ≥ 25 µM

Question: And the EC50 (ABCB4 WT)?
Answer: 1 to 10 µM

Question: And the EC50 (ABCA4 P1380L)?
Answer: > 25 µM

Question: Which results are given for CNS(=O)(=O)c1ccc(-c2cncc(C#N)c2)nc1Oc1c(C)nc(C(F)(F)F)nc1C1CC1 [Compound I-315]?
Answer: EC50 (ABCC6 WT): 1 to 10 µM; EC50 (ABCB4 WT): ≥ 25 µM; EC50 (ABCA4 P1380L): > 25 µM

Question: Which results are given for Cc1cc(C)c(Oc2nc(-c3cccc(C#N)c3)ccc2S(=N)(=O)C2CC2)c(C)n1 (stereo not drawn) [Compound I-316]?
Answer: EC50 (ABCC6 WT): 1 to 10 µM; EC50 (ABCB4 WT): 1 to 10 µM; EC50 (ABCA4 P1380L): 1 to 10 µM
